We go through two molecules from patent US11046672B2, “Indolinones compounds and their use in the treatment of fibrotic diseases” (RESPIVERT LIMITED, priority 2015, dated 2021).

Where two headings read alike, the source gives them in different places.

The target in series [1] is T1, PDGFRβ (Homo sapiens (Human), UniProt P09619). As to the kind of experiment: Duration of action (washout) against PDGF-BB induced phosphorylation of PDGFRβ in human fetal lung fibroblast cells. Format: cell-based. The note with it: MRC-5 cells, after wash-out, rhuPDGF-BB; experiments in Groups 1-4.
T1 sequence (P09619 33-1106): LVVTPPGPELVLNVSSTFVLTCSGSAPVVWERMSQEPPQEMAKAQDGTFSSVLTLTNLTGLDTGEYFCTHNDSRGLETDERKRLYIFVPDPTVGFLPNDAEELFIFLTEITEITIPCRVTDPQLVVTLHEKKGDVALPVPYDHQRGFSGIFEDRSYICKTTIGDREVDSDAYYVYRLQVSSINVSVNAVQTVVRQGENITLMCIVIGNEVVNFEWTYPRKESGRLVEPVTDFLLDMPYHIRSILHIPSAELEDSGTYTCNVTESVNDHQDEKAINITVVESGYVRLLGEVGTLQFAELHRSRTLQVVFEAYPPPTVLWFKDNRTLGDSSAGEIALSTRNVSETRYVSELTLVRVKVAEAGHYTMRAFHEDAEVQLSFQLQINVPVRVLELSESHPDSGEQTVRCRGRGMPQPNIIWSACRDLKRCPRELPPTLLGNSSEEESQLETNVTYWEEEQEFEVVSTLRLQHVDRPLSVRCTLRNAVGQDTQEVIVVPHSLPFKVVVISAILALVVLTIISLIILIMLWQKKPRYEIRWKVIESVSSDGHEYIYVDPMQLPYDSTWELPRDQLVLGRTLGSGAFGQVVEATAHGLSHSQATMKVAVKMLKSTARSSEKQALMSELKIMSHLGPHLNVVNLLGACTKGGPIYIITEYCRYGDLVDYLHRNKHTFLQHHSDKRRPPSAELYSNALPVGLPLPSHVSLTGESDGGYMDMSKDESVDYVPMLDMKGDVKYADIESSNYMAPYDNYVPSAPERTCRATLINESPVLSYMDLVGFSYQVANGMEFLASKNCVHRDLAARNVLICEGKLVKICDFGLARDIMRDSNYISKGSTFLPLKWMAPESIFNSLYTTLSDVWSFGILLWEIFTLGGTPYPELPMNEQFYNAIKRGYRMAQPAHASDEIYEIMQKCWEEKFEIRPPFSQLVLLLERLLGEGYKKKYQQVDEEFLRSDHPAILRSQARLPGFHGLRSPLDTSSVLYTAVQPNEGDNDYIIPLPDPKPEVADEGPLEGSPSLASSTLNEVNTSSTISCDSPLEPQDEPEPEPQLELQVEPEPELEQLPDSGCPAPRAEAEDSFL
Series [2] deals with T1, PDGFRβ. The note with it: read-out: Ki PDGFRβ; mean, n = 2 unless otherwise indicated.
In series [3] the target is T1, PDGFRβ. The series can be described thus: PDGF-BB induced phosphorylation of PDGFRβ in fibroblasts (MRC5 cells, HTRF). The format is cell-based. The settings on record: MRC5 cells; n = 1 unless otherwise indicated; read-out: PDGFBB-induced PDGFRβ phosphorylation in MRC5 cells (IC50). A general note: Time-resolved FRET reads energy transfer from a long-lived donor to a nearby acceptor.

The test system of another series is MRC5 cells. As to the kind of experiment: Cell viability assay in MRC5 cells (MTT).
Another series in a line: PAMPA permeability assay. The note with it: PAMPA; for recovery at 5 hr, 10 μM: pH 7, PAMPA, donor and acceptor compartments; for Papp at 5 h, 10 μM: pH 7, pH 7, 10 μM. Format: in vitro ADME. On the technique in general: The PAMPA barrier holds no transporters, so it reflects passive diffusion.
Series [4] can be described thus: Pharmacokinetic measurements in rats (intravenous and intra-tracheal dosing). Format: in vivo. The note with it: rat; for concentration at 0.1 h / concentration at 1.5 h / concentration at 24 h / Kp at 0.1 h / Kp at 1.5 h / Kp at 24 h: male, CD; for concentration at 0.1 h / concentration at 1.5 h / concentration at 24 h: lung, read-out: lung concentration (nM) at time (h); for Kp at 0.1 h / Kp at 1.5 h / Kp at 24 h: lung/plasma.

On to `COC(=O)c1cc2c(cc1C)/C(=C(/Nc1ccc(C(=O)N(C)OCCN3CCNCC3)cc1)c1ccccc1)C(=O)N2` [Example 57], for which the “% phos: percentage phosphorylation after wash-out relative to maximal phosphorylation (100%)” value on PDGFRβ [1] came out at 73.1%. Moreover, the Ki (usually a dissociation constant, usually derived from enzyme kinetics or from competition with a known ligand) at PDGFRβ [2] stood at 9.84 nM. In addition, the IC50 (usually the concentration needed to halve the response being measured) at PDGFRβ [3] was 5.04 nM. Besides, in the series with MRC5 cells, the “Cell viability at 100 nM (%)” value came to 123.5%, the “Cell viability at 300 nM (%)” value was determined as 123.2% and the “Cell viability at 1000 nM (%)” value was found to be 91.2%. In the series “PAMPA permeability assay”, the recovery at 5 hr, 10 μM was found to be 50.5%; the apparent permeability coefficient (Papp) (as a rule, the rate of passage across a membrane or cell layer, normalised by area and donor concentration) at 5 h, 10 μM was 0.688 ×10⁻⁶ cm/s.

For the molecule `COC(=O)c1ccc2c(c1)NC(=O)/C2=C(\Nc1ccc(S(=O)(=O)NOCCN(C)C)cc1)c1ccccc1` [Example 15], the Ki on PDGFRβ [2] came to 21.7 nM. Also, the IC50 at PDGFRβ [3] is 19.9 nM. In addition, the “Cell viability at 100 nM (%)” value with MRC5 cells stood at 106.9%. The “Cell viability at 300 nM (%)” value in the series with MRC5 cells is recorded as 99%. Further, the “Cell viability at 1000 nM (%)” value with MRC5 cells came to 97.5%. Also, the concentration at 0.1 h in series [4] (iv, i.v. dosing, 0.1 h) stood at 501 nM; in series [4] (other: intra-tracheal, i.t. dosing, 0.1 h) it was 3430 nM. Also, the concentration at 1.5 h worked out at 209 nM in series [4] (iv, i.v. dosing, 1.5 h) and 1370 nM in series [4] (other: intra-tracheal, i.t. dosing, 1.5 h). Besides, the concentration at 24 h in series [4] (iv, i.v. dosing, 24 h) amounted to 66 nM; in series [4] (other: intra-tracheal, i.t. dosing, 24 h), 135 nM. Also, the Kp at 0.1 h in series [4] (iv, i.v. dosing, 0.1 h, read-out: lung/plasma ratio at time(h)) was 55; in series [4] (other: intra-tracheal, i.t. dosing, 0.1 h, read-out: lung/plasma conc ratio at time(h)), 177. Further, the Kp at 1.5 h in series [4] (iv, i.v. dosing, 1.5 h, read-out: lung/plasma ratio at time(h)) stood at 62; in series [4] (other: intra-tracheal, i.t. dosing, 1.5 h, read-out: lung/plasma conc ratio at time(h)) it was 884. In addition, the Kp at 24 h in series [4] (iv, i.v. dosing, 24 h, read-out: lung/plasma ratio at time(h)) came out at 103; in series [4] (other: intra-tracheal, i.t. dosing, 24 h, read-out: lung/plasma conc ratio at time(h)) it was 314. For the same molecule, the “Lung conc i.t./i.v. Ratio at time (h)” value in series [4] (0.1 h) is listed as 6.9; in series [4] (1.5 h) it was 6.6; in series [4] (24 h) it was 2.0. Also, the “BAL % administered dose at time (h)” value turned out to be 2.4% in series [4] (i.t. dosing, 0.1 h); 0.6% in series [4] (i.t. dosing, 1.5 h); 0.1% in series [4] (i.t. dosing, 24 h); 0.09% in series [4] (i.v. dosing, 0.1 h); 0.02% in series [4] (i.v. dosing, 1.5 h); 0.01% in series [4] (i.v. dosing, 24 h). Moreover, in “PAMPA permeability assay”, the recovery at 5 hr, 10 μM amounted to 37.6%. In the series “PAMPA permeability assay”, this molecule returned a Papp at 5 h, 10 μM of 0.0756 ×10⁻⁶ cm/s.
